Test results taken from patent publication US7098350B2, “E2,E4,Z8-undecatrienoic acid and ester and carboxamide derivatives thereof, organoleptic uses thereof and processes for preparing same” (International Flavors & Fragrances Inc., priority 2003, dated 2006).

Columns and labels:
[1] = Organoleptic and somatosensory properties (Table I); conditions: at 10 ppm
Text: Specific members of the 2,4,8-undecatrienoic acid derivative genus of our invention have organoleptic and somatosensory properties as set forth in the following Table I: […]

[2] = Taste evaluation in kiwi-flavored 30° proof alcoholic beverage; conditions: 3 ppm compound plus 200 ppm kiwi flavor blend in 30° proof alcoholic base; control has flavor blend only
Experimental: (§1) The following formulation was prepared: […]
Flavored beverages were prepared using the above 30° proof alcoholic base. A kiwi flavor was applied to the beverages. This flavor consisted of cis-3 hexenol, trans-2 hexenal, ethyl butyrate, ethyl-2-methyl butyrate, isoamyl butyrate, ethyl acetate, ethyl isovalerate, and trans-2-hexenol in equal proportions. The control beverage contained 200 ppm of the above flavor blend. […] Another beverage was prepared containing 200 ppm of the same flavor and 3 ppm of N-isobutyl E2,E4,Z8-undecatrienamide prepared according to Example 1(B).

[3] = Taste evaluation in cola-flavored hard candy; conditions: 50 ppm compound in cola-flavored hard candy; control without compound
Experimental: as §1
The above formulation was added to a stainless steel pot. With constant mixing, the formulation temperature was raised to 295° F. The pot was then removed from the heat, and 1.0 grams of a cola flavor containing the ingredients in equal amounts: cinnamic aldehyde, ginger oil, lemon oil, lime oil and nutmeg oil was added and blended with the sucrose-corn syrup-water formulation. After the blending was complete, 1.2 grams of citric acid was added. The resulting liquid candy was then deposited into molds, and the molds containing the liquid candy were cooled to room temperature, yielding 200 grams of finished hard candy. […] A second candy sample was prepared using the above recipe modified by the addition of 50 ppm of N-isobutyl E2, E4, Z8-undecatrienamide prepared according the procedure of Example 1 (B).

What does the source list for `CC/C=C\CC/C=C/C=C/C(=O)NCC(C)C` [N-isobutyl E2,E4,Z8-undecatrienamide]?
Primary Flavor or Sensory Characteristic (sensation) [1]: Strong tingle at 10 ppm.; Flavor of beverage versus control [2]: slightly more melon rind in character than the control; Perception / somatosensory effect of beverage versus control [2]: enhanced perception of alcohol and a tingle effect on the tongue; Flavor and taste effect of hard candy versus control [3]: moderately strong and substantive cola profile, as well as a taste effect similar to carbonation
